Reference: patent publication US6451736B1, “Substituted aromatic thiocarboxylic acid amides and their use as herbicides” (Bayer Aktiengesellschaft, priority 1994, dated 2002)

Key:
Format in all cases: in vivo
[1] = system: Solanum; test: Pre-emergence test/greenhouse; settings: after three weeks
Method: (§1) To produce a suitable preparation of active compound, 1 part by weight of active compound is mixed with the stated amount of solvent, the stated amount of emulsifier is added and the concentrate is diluted with water to the desired concentration.
(§2) Seeds of the test plants are sown in normal soil and, after 24 hours, watered with the preparation of active compound. It is expedient to keep constant the amount of water per unit area. The concentration of the active compound in the preparation is of no importance, only the amount of active compound applied per unit area being decisive. After three weeks, the degree of damage to the plants is rated in % damage in comparison to the development of the untreated control. The figures denote:
(§3) 0%=no action (like untreated control)

[2] = system: Wheat; test: Pre-emergence test/greenhouse; settings: Table B, after three weeks
Method: as §1, §2, §3

[3] = system: Amaranthus; test: Pre-emergence test/greenhouse; settings: after three weeks
Method: as §1, §2, §3

[4] = system: Chenopodium; test: Pre-emergence test/greenhouse; settings: after three weeks
Method: as §1, §2, §3

[5] = system: Barley; test: Pre-emergence test/greenhouse; settings: Table A, 125 g/ha, after three weeks
Method: as §1, §2, §3

[6] = system: Maize; test: Pre-emergence test/greenhouse; settings: after three weeks
Method: as §1, §2, §3

[7] = system: Abuthilon; test: Pre-emergence test/greenhouse; settings: Table B, after three weeks
Method: as §1, §2, §3

[8] = system: Portulaca; test: Pre-emergence test/greenhouse; settings: after three weeks
Method: as §1, §2, §3

[9] = system: Matricaria; test: Pre-emergence test/greenhouse; settings: after three weeks
Method: as §1, §2, §3

[10] = system: Solanum; test: Post-emergence test/greenhouse; settings: Table C, after three weeks
Method: as §1
(§4) Test plants which have a height of 5-15 cm are sprayed with the preparation of active compound in such a way as to apply the particular amounts of active compound desired per unit area. After three weeks, the degree of damage to the plants is rated in % damage in comparison to the development of the untreated control.
(§5) 0%=no action (like intreated control)

[11] = system: Wheat; test: Post-emergence test/greenhouse; settings: Table C, after three weeks
Method: as §1, §4, §5

[12] = system: Amaranthus; test: Post-emergence test/greenhouse; settings: Table C, after three weeks
Method: as §1, §4, §5

[13] = system: Chenopodium; test: Post-emergence test/greenhouse; settings: Table C, after three weeks
Method: as §1, §4, §5

[14] = system: Maize; test: Post-emergence test/greenhouse; settings: Table C, after three weeks
Method: as §1, §4, §5

[15] = system: Veronica; test: Post-emergence test/greenhouse; settings: Table C, after three weeks
Method: as §1, §4, §5

[16] = system: Abuthilon; test: Post-emergence test/greenhouse; settings: Table C, after three weeks
Method: as §1, §4, §5

| Compound | degree of damage, Solanum ([1]; Table A, 125 g/ha) [%] | degree of damage, Solanum ([1]; Table B, 125 g/ha) [%] | degree of damage, Wheat ([2]; 125 g/ha) [%] | degree of damage, Amaranthus ([3]; Table A, 125 g/ha) [%] | degree of damage, Amaranthus ([3]; Table B, 125 g/ha) [%] | degree of damage, Chenopodium ([4]; Table A, 125 g/ha) [%] | degree of damage, Chenopodium ([4]; Table B, 125 g/ha) [%] | degree of damage, Barley [5] [%] | degree of damage, Maize ([6]; Table A, 125 g/ha) [%] | degree of damage, Maize ([6]; Table B, 125 g/ha) [%] | degree of damage, Abuthilon ([7]; 125 g/ha) [%] | degree of damage, Portulaca ([8]; Table A, 125 g/ha) [%] | degree of damage, Portulaca ([8]; Table B, 125 g/ha) [%] | degree of damage, Matricaria ([9]; Table A, 125 g/ha) [%] | degree of damage, Matricaria ([9]; Table B, 125 g/ha) [%] | degree of damage, Solanum ([1]; Table B, 60 g/ha) [%] | degree of damage, Wheat ([2]; 60 g/ha) [%] | degree of damage, Amaranthus ([3]; Table B, 60 g/ha) [%] | degree of damage, Chenopodium ([4]; Table B, 60 g/ha) [%] | degree of damage, Maize ([6]; Table B, 60 g/ha) [%] | also measured |
| --- | --- | --- | --- | --- | --- | --- | --- | --- | --- | --- | --- | --- | --- | --- | --- | --- | --- | --- | --- | --- | --- |
| CCN(CC)CC.CCS(=O)(=O)Nc1cc(-n2nc(C)n(NC)c2=O)c(F)cc1C(N)=S [Example 7] | 95 | 95 | 50 | 100 | 100 | 100 | 100 | 30 | 0 | 0 | 95 | 100 | 100 | 95 | 95 | – | – | – | – | – | degree of damage, Solanum ([10]; 60 g/ha): 100%; degree of damage, Wheat ([11]; 60 g/ha): 10%; degree of damage, Amaranthus ([12]; 60 g/ha): 100%; degree of damage, Chenopodium ([13]; 60 g/ha): 95%; degree of damage, Maize ([14]; 60 g/ha): 50%; degree of damage, Veronica ([15]; 60 g/ha): 95%; degree of damage, Abuthilon ([16]; 60 g/ha): 100% |
| C#CC(C)Oc1cc(-n2nc(C(F)F)n(C)c2=S)c(F)cc1C(N)=S (stereo not shown) [Example 6] | 100 | – | – | 100 | – | 100 | – | 0 | 30 | – | – | 100 | – | 95 | – | 95 | 20 | 100 | 100 | 30 | degree of damage, Abuthilon ([7]; 60 g/ha): 100%; degree of damage, Portulaca ([8]; Table B, 60 g/ha): 100%; degree of damage, Matricaria ([9]; Table B, 60 g/ha): 100%; degree of damage, Solanum ([10]; 8 g/ha): 100%; degree of damage, Wheat ([11]; 8 g/ha): 30%; degree of damage, Amaranthus ([12]; 8 g/ha): 100%; degree of damage, Chenopodium ([13]; 8 g/ha): 100%; degree of damage, Maize ([14]; 8 g/ha): 50%; degree of damage, Veronica ([15]; 8 g/ha): 95%; degree of damage, Abuthilon ([16]; 8 g/ha): 100% |
| CCn1c(C(F)(F)F)nn(-c2cc(NS(=O)(=O)CC)c(C(N)=S)cc2F)c1=O [Example 5] | 100 | 100 | 0 | 100 | 100 | 100 | 100 | 0 | 0 | 0 | 10 | 90 | 90 | 90 | 70 | – | – | – | – | – | degree of damage, Solanum ([10]; 15 g/ha): 100%; degree of damage, Wheat ([11]; 15 g/ha): 10%; degree of damage, Amaranthus ([12]; 15 g/ha): 100%; degree of damage, Chenopodium ([13]; 15 g/ha): 100%; degree of damage, Maize ([14]; 15 g/ha): 20%; degree of damage, Veronica ([15]; 15 g/ha): 100%; degree of damage, Abuthilon ([16]; 15 g/ha): 100% |
| CCS(=O)(=O)Nc1cc(-n2nc(C(F)F)n(C)c2=S)c(F)cc1C(N)=S [Example 3, 2-(2-fluoro-4-thiocarbamoyl-5-ethylsulphonylaminophenyl)-4-methyl-5-difluoromethyl-2,4-dihydro-3H-1,2,4-triazole-3-thione] | 100 | – | – | 100 | – | 100 | – | 0 | 0 | – | – | 100 | – | 100 | – | 100 | 0 | 100 | 100 | 0 | degree of damage, Abuthilon ([7]; 60 g/ha): 100%; degree of damage, Portulaca ([8]; Table B, 60 g/ha): 100%; degree of damage, Matricaria ([9]; Table B, 60 g/ha): 100%; degree of damage, Solanum ([10]; 30 g/ha): 100%; degree of damage, Wheat ([11]; 30 g/ha): 10%; degree of damage, Amaranthus ([12]; 30 g/ha): 100%; degree of damage, Chenopodium ([13]; 30 g/ha): 100%; degree of damage, Maize ([14]; 30 g/ha): 30%; degree of damage, Veronica ([15]; 30 g/ha): 100%; degree of damage, Abuthilon ([16]; 30 g/ha): 100% |
